# Measured values reported in publication PMC10360995, “Discovery of 3-((3-amino-1H-indazol-4-yl)ethynyl)-N-(4-((4-ethylpiperazin-1-yl)methyl)-3-(trifluoromethyl)phenyl)benzamide (AKE-72), a potent Pan-BCR-ABL inhibitor including the T315I gatekeeper resistant mutant” (Journal of Enzyme Inhibition and Medicinal Chemistry, 2023).
# Where two headings read alike, the source gives them in different places.
# Key:
# CCRF-CEM = test: NCI SRB anti-leukemic assay
# HL-60(TB) [1] = test: cells; conditions: Homo sapiens
# BCR-ABL^WT = BCR-ABL^WT (Homo sapiens, UniProt P00519); conditions: cited from earlier work
# Sequence of BCR-ABL^WT (P00519 whole entry): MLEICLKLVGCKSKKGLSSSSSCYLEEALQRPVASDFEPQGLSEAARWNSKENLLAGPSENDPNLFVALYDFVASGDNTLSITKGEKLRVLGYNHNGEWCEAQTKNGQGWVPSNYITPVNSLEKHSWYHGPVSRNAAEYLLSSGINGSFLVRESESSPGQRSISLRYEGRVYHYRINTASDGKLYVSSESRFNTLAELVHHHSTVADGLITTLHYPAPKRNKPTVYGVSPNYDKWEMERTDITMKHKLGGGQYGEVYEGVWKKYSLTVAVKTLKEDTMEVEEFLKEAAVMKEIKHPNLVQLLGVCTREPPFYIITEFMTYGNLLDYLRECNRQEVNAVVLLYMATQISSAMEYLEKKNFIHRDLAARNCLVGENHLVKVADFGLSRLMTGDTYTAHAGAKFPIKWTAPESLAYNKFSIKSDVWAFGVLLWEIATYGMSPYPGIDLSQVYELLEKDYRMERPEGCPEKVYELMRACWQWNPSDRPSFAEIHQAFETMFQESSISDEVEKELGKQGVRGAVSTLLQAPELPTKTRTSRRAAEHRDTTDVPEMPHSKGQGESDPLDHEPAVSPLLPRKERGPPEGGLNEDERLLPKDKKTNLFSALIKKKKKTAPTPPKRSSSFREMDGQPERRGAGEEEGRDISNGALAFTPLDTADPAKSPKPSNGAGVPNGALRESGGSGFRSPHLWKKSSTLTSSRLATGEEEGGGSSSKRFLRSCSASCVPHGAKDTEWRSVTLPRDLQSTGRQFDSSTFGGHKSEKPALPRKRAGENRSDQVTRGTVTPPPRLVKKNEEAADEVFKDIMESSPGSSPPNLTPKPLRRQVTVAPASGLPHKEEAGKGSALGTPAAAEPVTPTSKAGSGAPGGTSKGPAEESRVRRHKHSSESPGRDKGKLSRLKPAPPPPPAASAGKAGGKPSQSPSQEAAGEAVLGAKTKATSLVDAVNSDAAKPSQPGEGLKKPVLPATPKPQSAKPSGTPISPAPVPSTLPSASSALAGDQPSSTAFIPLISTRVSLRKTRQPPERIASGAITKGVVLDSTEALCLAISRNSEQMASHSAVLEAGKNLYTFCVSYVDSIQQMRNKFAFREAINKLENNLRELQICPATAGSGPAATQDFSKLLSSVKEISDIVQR
# HL-60(TB) [2] = tested on: HL-60(TB)
# MOLT-4 = test: NCI SRB anti-leukemic assay
# RPMI-8226 = test: NCI SRB anti-leukemic assay
# K-562 [3] = tested on: K-562; parameters: method as in PMID 32961435; conditions: cited from earlier work
# SR = test: NCI SRB anti-leukemic assay
# K-562 [4] = test: NCI SRB anti-leukemic assay
# CML = conditions: cited from earlier work
# Ba/F3 mouse pro-B cells = test: Cellular proliferation assay; type: cell-based; conditions: BaF3, read-out: GI50 Ba/F3 (mouse pro-B cell)
# Description: We also tested AKE-72 against BCR-ABL-positive and BCR-ABL-negative cell lines.
# 1.8. Cytochrome P450 Assay
# The binding site was defined based
compound,measurement,setting,value
"Nc1n[nH]c2cccc(C#Cc3cccc(NC(=O)c4ccc(N5CCOCC5)c(C(F)(F)F)c4)c3)c12 [I, reference compound]",GI50,"CCRF-CEM; Homo sapiens, CCRF-CEM, read-out: GI50 CCRF-CEM",1.36 µM
same,CC50,"CCRF-CEM; Homo sapiens, CCRF-CEM, read-out: LC50 (half-maximal lethal concentration) CCRF-CEM",> 100 µM
same,TGI (total growth inhibition) CCRF-CEM,CCRF-CEM; five-dose assay,6.58 µM
same,GI % CCRF-CEM,CCRF-CEM; single dose 10 µM,9.49%
same,GI50,"HL-60(TB) [1]; HL-60, read-out: GI50 HL-60(TB)",1.4 µM
same,CC50,"HL-60(TB) [1]; HL-60, read-out: LC50 (half-maximal lethal concentration) HL-60(TB)",> 100 µM
same,IC50,BCR-ABL^WT,0.0046 ± 0.0006 µM
same,TGI (total growth inhibition) HL-60(TB),HL-60(TB) [2]; five-dose assay,10.5 µM
same,GI % HL-60(TB),HL-60(TB) [2]; single dose 10 µM,99.01%
same,GI50,"MOLT-4; Homo sapiens, MOLT-4, read-out: GI50 MOLT-4",1.31 µM
same,CC50,"MOLT-4; Homo sapiens, MOLT-4, read-out: LC50 (half-maximal lethal concentration) MOLT-4",> 100 µM
same,TGI (total growth inhibition) MOLT-4,MOLT-4; five-dose assay,5.71 µM
same,GI % MOLT-4,MOLT-4; single dose 10 µM,92.33%
same,GI50,"RPMI-8226; Homo sapiens, RPMI-8226, read-out: GI50 RPMI-8226",1.98 µM
same,CC50,"RPMI-8226; Homo sapiens, RPMI-8226, read-out: LC50 (half-maximal lethal concentration) RPMI-8226",> 100 µM
same,TGI (total growth inhibition) RPMI-8226,RPMI-8226; five-dose assay,6.50 µM
same,GI % RPMI-8226,RPMI-8226; single dose 10 µM,L (lethal effect (% GI > 100))
same,GI50,K-562 [3],< 0.01 µM
same,GI50,"SR; Homo sapiens, SR, read-out: GI50 SR",2.4 µM
same,CC50,"SR; Homo sapiens, SR, read-out: LC50 (half-maximal lethal concentration) SR",> 100 µM
same,TGI (total growth inhibition) SR,SR; five-dose assay,>100 µM
same,GI % SR,SR; single dose 10 µM,87.42%
same,GI50,"K-562 [4]; Homo sapiens, K562, read-out: GI50 K-562",< 0.01 µM
same,CC50,"K-562 [4]; Homo sapiens, K562, read-out: LC50 (half-maximal lethal concentration) K-562",> 100 µM
same,TGI (total growth inhibition) K-562,K-562 [4]; five-dose assay,13.5 µM
same,TGI K-562,K-562 [4]; five-dose assay,13.5 µM
same,GI % K-562,K-562 [4]; single dose 10 µM,97.96%
Cc1ccc(NC(=O)c2ccc(CN3CCN(C)CC3)cc2)cc1Nc1nccc(-c2cccnc2)n1 [Imatinib],long-term success rate,"CML; CML, after 10 years",83.3%
same,overall 5-year survival rate,CML; patients diagnosed with CML,89%
"Cc1ccc(C(=O)Nc2ccc(CN3CCN(C)CC3)c(C(F)(F)F)c2)cc1C#Cc1cnc2cccnn12 [Ponatinib, reference compound]",GI50,Ba/F3 mouse pro-B cells,0.708 ± 0.037 µM
